Test results reported in ChEMBL document CHEMBL4699399, “Discovery of isoxazolyl-based inhibitors of Plasmodium falciparum cGMP-dependent protein kinase” (RSC Med Chem, 2020).
pIC50: −log10 of the molar value.

What was measured:
[1] = Inhibition of recombinant Plasmodium falciparum PKG using FAM-PKAtide as substrate preincubated for 15 mins followed by substrate addition and measured after 1 hr by IMAP fluorescence polarization assay
[2] = Inhibition of human PKG measured up to 10 uM
Plasmodium falciparum = test: Inhibition of recombinant Plasmodium falciparum PKG using FAM-PKAtide as substrate at 10 uM preincubated for 15 mins followed by substrate addition and measured after 1 hr by IMAP fluorescence polarization assay relative to control; conditions: time 75.0 min

| SMILES | pIC50 [1] | inhibition (INH) [2] | inhibition (Plasmodium falciparum) [%] |
| --- | --- | --- | --- |
| CCN(CC)Cc1onc(-c2cccc(Cl)c2)c1-c1ccnc(N[C@@H]2CCN(C(=O)c3c[nH]cn3)C2)n1 | 7.33 | – | – |
| CCN(CC)Cc1onc(-c2cccc(Cl)c2)c1-c1ccnc(N[C@@H]2CCN(C(=O)c3nc[nH]n3)C2)n1 | 6.21 | – | – |
| CCN(CC)Cc1onc(-c2cccc(Cl)c2)c1-c1ccnc(N2CC(C(=O)c3ccsn3)C2)n1 | 5.59 | – | – |
| Cc1onc(-c2cccc(Cl)c2)c1-c1ccnc(N[C@@H]2CCN(C(=O)c3cnoc3)C2)n1 | 6.68 | Not Active | – |
| CCN(CC)Cc1onc(-c2cccc(Cl)c2)c1-c1ccnc(N[C@@H]2CCN(C(=O)c3cnn(C)c3)C2)n1 | 7.42 | – | – |
| Cc1onc(-c2ccccc2)c1-c1ccnc(N[C@@H]2CCN(C(=O)c3cnoc3)C2)n1 | 6.12 | – | – |
| CCN(CC)Cc1onc(-c2cccc(Cl)c2)c1-c1ccnc(N[C@@H]2CCN(C(=O)c3cc[nH]n3)C2)n1 | 6.92 | – | – |
| Cc1onc(-c2ccccc2)c1-c1ccnc(N[C@@H]2CCN(C(=O)c3cccnc3)C2)n1 | 6.00 | – | – |
| CCN(CC)Cc1onc(-c2cccc(Cl)c2)c1-c1ccnc(N[C@@H]2CCN(C(=O)c3ccsn3)C2)n1 | 7.82 | – | – |
| CCN(CC)Cc1onc(-c2ccc(F)cc2)c1-c1ccnc(N[C@@H]2CCN(C(=O)c3cnoc3)C2)n1 | 6.18 | – | – |
| Cc1onc(-c2ccccc2)c1-c1ccnc(N[C@@H]2CCN(C(=O)c3cnccn3)C2)n1 | 5.70 | – | – |
| O=C(c1cnoc1)N1CC[C@@H](Nc2nccc(-c3c(-c4ccccc4)noc3CO)n2)C1 | 6.00 | – | – |
| CCN(CC)Cc1onc(-c2cccc(Cl)c2)c1-c1ccnc(N[C@@H]2CCN(S(=O)(=O)c3cnn(C)c3)C2)n1 | – | – | 40 |
| O=C(c1cnoc1)N1CC[C@H](Nc2nccc(-c3c(-c4ccccc4)noc3CO)n2)C1 | – | – | 60 |

Results, then the compound that gave them:

| pIC50 [1] | inhibition (INH) [2] | inhibition (Plasmodium falciparum) [%] | SMILES |
| --- | --- | --- | --- |
| 8.00 | – | – | CCN(CC)Cc1onc(-c2cccc(Cl)c2)c1-c1ccnc(N[C@@H]2CCN(C(=O)c3ccn(C)n3)C2)n1 |
| 6.05 | – | – | CCN(CC)Cc1onc(-c2ccccc2F)c1-c1ccnc(N[C@@H]2CCN(C(=O)c3cnoc3)C2)n1 |
| – | – | 5 | CCN(CC)Cc1onc(-c2cccc(Cl)c2)c1-c1ccnc(N[C@@H]2CCN(Cc3cnn(C)c3)C2)n1 |
| 7.01 | – | – | CCN(CC)Cc1onc(-c2cccc(Cl)c2)c1-c1ccnc(N[C@@H]2CCN(C(=O)c3cn[nH]c3)C2)n1 |
| – | – | 5 | CCN(CC)Cc1onc(-c2cccc(Cl)c2)c1-c1ccnc(N[C@@H]2CCN(Cc3ccn(C)n3)C2)n1 |
| – | – | 23 | CCOC(=O)c1onc(-c2ccccc2)c1-c1ccnc(N[C@@H]2CCN(C(=O)c3cnoc3)C2)n1 |
| – | – | 46 | CCN(CC)Cc1onc(-c2cccc(Cl)c2)c1-c1ccnc(N2CCC(C(=O)c3ccsn3)CC2)n1 |
| 5.68 | – | – | Cc1onc(-c2ccccc2Cl)c1-c1ccnc(N[C@@H]2CCN(C(=O)c3cnoc3)C2)n1 |
| 5.55 | – | – | Cc1onc(-c2ccc(Cl)cc2)c1-c1ccnc(N[C@@H]2CCN(C(=O)c3cnoc3)C2)n1 |
| 5.85 | – | – | O=C(c1cnoc1)N1CC[C@@H](Nc2nccc(-c3c(-c4ccccc4)noc3CN3CCCC3)n2)C1 |
| 6.00 | – | – | O=C(c1cnoc1)N1CC[C@@H](Nc2nccc(-c3c(-c4ccccc4)noc3CN3CCOCC3)n2)C1 |
| 7.60 | – | – | CCN(CC)Cc1onc(-c2cccc(Cl)c2)c1-c1ccnc(N[C@@H]2CCN(C(=O)c3ccon3)C2)n1 |
| – | – | 60 | CCN(CC)Cc1onc(-c2cccc(Cl)c2)c1-c1ccnc(N2CCCC2CC(=O)c2ccsn2)n1 (racemic) |
| 7.89 | – | – | CCN(CC)Cc1onc(-c2cccc(Cl)c2)c1-c1ccnc(N[C@@H]2CCN(C(=O)c3cnoc3)C2)n1 |
| 6.07 | Not Active | – | CCN(CC)Cc1onc(-c2ccccc2)c1-c1ccnc(N[C@@H]2CCN(C(=O)c3cnoc3)C2)n1 |
| 6.44 | – | – | CCN(CC)Cc1onc(-c2cccc(F)c2)c1-c1ccnc(N[C@@H]2CCN(C(=O)c3cnoc3)C2)n1 |
| – | – | 75 | CCN(CC)Cc1onc(-c2cccc(Cl)c2)c1-c1ccnc(N2CCCC(C(=O)c3ccsn3)C2)n1 (racemic) |
| 7.13 | – | – | CCN(CC)Cc1onc(-c2cccc(Cl)c2)c1-c1ccnc(N[C@@H]2CCN(C(=O)c3cnsc3)C2)n1 |
